Source: patent publication US5688824A, “Use of leflunomide to prevent or control xenograft rejection” (priority 1996, dated 1997)
Where two headings read alike, the source gives them in different places.

How the values were obtained:
[1] = system: chronic rejection of rat cardiac allografts; assay: chronic rejection of rat cardiac allografts (LEW to F-344), histologic scoring of arterial intimal thickening; format: in vivo
Method: These rats share major histocompatibility antigens but differ at minor histocompatibility loci. A short course of immunosuppression results in a slow chronic rejection that gradually destroys the graft, with the appearance of reproducible histology similar to the chronic rejection seen in humans.
Donor and recipient animals were anesthetized with Ketamine/Xylazine (Fort Dodge, Iowa) 100/5 mg/kg. […] Cardiac allograft survival was determined by daily abdominal palpation, and rejection was considered complete upon cessation of heart beat.
The three control groups were given no treatment and were sacrificed at designated 30-day intervals to observe the development of chronic rejection. The treatment groups were administered daily doses of leflunomide or leflunomide and CsA according to Table 1 below, beginning at day 30 and continuing to day 60 or day 90. CsA in oral form (Sandimmune, Sandoz Corporation, East Hanover, N.J.) was administered at 2, 5 or 10 mg/kg to rats by gavage.
Upon sacrifice, the heart allograft was removed, serially sectioned into approximately 2-mm slices, and fixed in 10% buffered formalin overnight. The sections were embedded in paraffin and stained with hematoxylin and eosin, Verhoeff's elastin stain and Masson's trichrome stain to evaluate pathologic changes and to score graft arterial intimal thickening. The remaining sections were immunostained using standard indirect avidin-biotin techniques (Vectastain ABC-Elite, Vector Laboratories, Burlingame, Calif.) with monoclonal antibodies against smooth muscle actin (DAKO, Carpin Terra, Calif.) to evaluate intimal smooth muscle proliferation, and with polyclonal antibodies against phosphotyrosine to evaluate tyrosine kinase activity by counting phosphotyrosine positive cells. […] Allospecific antibody titres among the groups were compared using the unpaired Student's t-test.
The sections were examined by light microscopy, and 20 to 70 arteries in each allograft were blindly scored for severity of arterial intimal thickening according to the general standard of Adams et al., supra, using the following histological scores: a score of 0 was a normal artery; a score of 1, intimal thickening up to approximately 50% of the perimeter of the vessel, with less than 20% luminal compromise; a score of 2, intimal thickening involving between 50% and 100% of the perimeter of the vessel, with less than 20% luminal compromise; score of 3, circumferential intimal thickening, with more than 20% but less than 50% luminal compromise; score of 4, circumferential intimal thickening, with more than 50% but less than 80% luminal compromise; score of 5, circumferential intimal thickening, with more than 80% luminal compromise. […] Statistical comparisons of histological scores were performed using the Mann-Whitney U--Wilcoxon Rank Sum W Test.

[2] = system: rejection of concordant hamster to rat cardiac xenografts; assay: hamster to rat concordant cardiac xenograft rejection; format: in vivo, Golden Syrian hamster donor, Lewis (LEW) rat recipient
Excerpt: The fundamental design of this experiment was to determine a dose response curve using leflunomide as monotherapy, CsA as monotherapy, and both used as combination therapy. End points used to assess efficacy were duration of time to rejection, mortality, histologic differences among the treatment groups, and donor specific antibody responses.
Male LEW rats weighing approximately 200 grams and male Golden Syrian hamsters weighing approximately 150 grams (Harlan, Sprague, Dawley, Indianapolis, Ind.) were allowed five to ten days of acclimatization before surgery was performed. Ketamine-xylazine anesthesia was used in all animals and food and water were freely allowed post-operatively.
Heart transplantation was performed according to the technique of Ono et al., Cardiovasc. […] Cardiac xenograft survival was determined by daily palpation, and rejection was considered complete when the impulse was undetectable. CsA, in its intravenous form (Sandimmune, Sandoz Corporation, East Hanover, N.J.) was administered daily by intramuscular injection to the rat hind limbs. Leflunomide (HWA-486, Hoechst AG, Germany) suspended in 1% carboxymethylcellulose was administered by gavage daily. Immunosuppression therapy was started on the day of surgery unless otherwise specified.
The transplanted animals were assigned to one control group and twelve treatment groups, with dosing at 2.5, 5, 10, 15 and 20 mg/kg of leflunomide, and 10 and 20 mg/kg of CsA. In two groups CsA was kept at 10 mg/kg while leflunomide was dosed at 5 or 10 mg/kg. Three additional treatment groups were included in which leflunomide monotherapy was started seven days before transplantation, or two or three days after transplantation.
The graft heart was excised after cessation of heart beat. Part of the heart was snap frozen in liquid nitrogen and stored at -70° C.; the remainder was fixed in formalin and stained with hematoxylin and eosin to determine pathological changes. The frozen tissue was stained for IgM and IgG deposition using ABC Technique according to Hsu et al., J. Histochem. Cytochem., 29:577 (1981).

cytotoxic antibody = assay: complement-mediated cytotoxicity assay, cardiac xenografts; format: in vivo, rat; conditions: leflunomide therapy
[3] = system: tubulointerstitial nephritis; conditions: BN rats, cited from earlier work
[4] = system: proteoglycan-induced arthritis; conditions: BALB/c mouse; cited from earlier work
IL-2 = conditions: cited from earlier work
[5] = system: cardiac allografts, established acute rejection; conditions: cited from earlier work; for mean survival time of the cardiac allografts: 7 days
[6] = system: BN heterotopic heart grafts; conditions: oral 15 mg/kg/day, cited from earlier work
allogeneic kidney graft = conditions: cited from earlier work
[7] = Lef 15 mg/kg, day began 0, group 5, listed as Lef

Cc1oncc1C(=O)Nc1ccc(C(F)(F)F)cc1 [leflunomide, N-(4-trifluoromethylphenyl)-5-methylisoxazol-4-carboxamide]
effect on chronic rejection process ([1]; 5 mg/kg (each) from day 30, 10 mg/kg (each) day 60 to 90): able to halt the progression of chronic rejection and partially reverse the process of arterial thickening
mononuclear cell infiltration, myocardial fibrosis, smooth muscle proliferation ([1]; 5 mg/kg (each) from day 30, 10 mg/kg (each) day 60 to 90, day 90): Interstitial mononuclear cell infiltration and myocardial fibrosis were mild
arterial intimal thickening, change vs control ([1]; 5 mg/kg (each) from day 30, day 60): did not significantly improve by day 60
Histological Scores (mean vascular histologic score) ([1]; Lef 5 mg/kg day 30 to 60, then 10 mg/kg day 60 to 90, group 8): 1.38±0.92
Histological Scores (mean vascular histologic score) ([1]; Lef 5 mg/kg day 30 to 60, then 10 mg/kg day 60 to 90, group 8, listed as Lef): 1.4 ± 0.9
Histological Scores (mean vascular histologic score) ([1]; Lef 5 mg/kg from day 30 to day 60, group 5, sacrificed day 60): 1.55±0.53
Histological Scores (mean vascular histologic score) ([1]; Lef 5 mg/kg from day 30 to day 60, group 5, sacrificed day 60, listed as Lef): 1.6 ± 0.5
graft histology ([2]; 2.5 mg/kg leflunomide, rejected grafts): Interstitial hemorrhage, focal vascular thrombosis and myocardial necrosis with sparse polymorphonuclear cellular infiltration
graft histology ([2]; 5.0 mg/kg leflunomide, rejected grafts): Interstitial hemorrhage, focal vascular thrombosis and myocardial necrosis with sparse polymorphonuclear cellular infiltration
graft histology ([2]; 15 mg/kg leflunomide monotherapy, long-term grafts): myocardial fibrosis, moderate mononuclear cell infiltration and arterial thickening, consistent with chronic rejection
Mean Survival ± SD ([2]; Lef 2.5 mg/kg, day began 0, group 2): 5.0 ± 0.6 days
Mean Survival ± SD ([2]; Lef 5 mg/kg, day began 0, group 3): 7.7 ± 2.5 days
Graft Survival for Each Subject ([2]; Lef 5 mg/kg, day began 0, group 3, listed as Lef): 8,14 days
Mean Survival ± SD ([2]; Lef 10 mg/kg, day began 0, group 4): 52.0 ± 20.2 days
Mean Survival ± SD ([2]; Lef 10 mg/kg, day began +2, group 12): 58.0 ± 13.7 days
Graft Survival for Each Subject ([2]; Lef 10 mg/kg, day began +2, group 12, listed as Lef): 76,77 days
Mean Survival ± SD ([2]; Lef 10 mg/kg, day began +3, group 13): 3.7 ± 0.5 days
Mean Survival ± SD ([2]; Lef 10 mg/kg, day began -7, group 11): 64.0 ± 13.3 days
Mean Survival ± SD ([2]; Lef 15 mg/kg, day began 0, group 5): 76.5 ± 21 days
Graft Survival for Each Subject [2, 7]: 100,105 days
Mean Survival ± SD [2, 7]: 76.5 ± 21.1 days
Mean Survival ± SD ([2]; Lef 20 mg/kg, day began 0, group 6): 58.9 ± 28.1 days
Graft Survival for Each Subject ([2]; Lef 20 mg/kg, day began 0, group 6, listed as Lef): 100 days
time to rejection of the graft ([2]; initiation of leflunomide delayed until day 3, all animals): ≤ 24 h
toxicity ([2]; leflunomide 20 mg/kg): lethal toxicity appeared
optimal dose ([2]; leflunomide monotherapy): 15 mg/kg
control of xenograft rejection ([2]; leflunomide monotherapy, high doses causing toxicity): unable to totally control xenograft rejection
minimal effective dose ([2]; leflunomide monotherapy, read-out: dose at which graft survival exceeded that of untreated controls): 10 mg/kg
effect of start time on length of graft survival ([2]; leflunomide started seven days before or two days after transplantation): no significant effect on length of graft survival
cytotoxic antibody titres (cytotoxic antibody): prevented or reversed the cytotoxic antibody titres
prevention of tubulointerstitial nephritis [3]: very effective
reduction of incidence of auto-antibody formation [3]: much more effective than any of the other drugs in reducing the incidence of auto-antibody formation
prevention of tubulointerstitial nephritis ([3]; listed as Leflunomide): as effective as Cyclosporine A, and was more effective than prednisolone, naproxen or indomethacin in preventing disease development
effect on arthritis [4]: suppresses acute inflammation and protects animals from new inflammatory episodes or acute exacerbation of chronically inflamed joints
inhibition of production of IL-2 (IL-2): only partially inhibits the production of IL-2
prolongation of survival ([5]; 5 mg/kg by gavage, 7- or 14-day course from day of transplantation): approximately equal prolongations of survival
mononuclear leukocyte infiltration ([5]; started at day 4): completely cleared the mononuclear leukocyte infiltration on histological analysis
mean survival time of the cardiac allografts ([5]; started at day 4 post-transplantation): 25.4±1.4 days
mean survival time of the cardiac allografts ([5]; started at day 6 post-transplantation): 16.3±8.5 days
allospecific IgG response ([5]; started day 4): The generation of allospecific IgG response was inhibited
allospecific cytotoxic antibody production (primarily IgM) ([5]; started day 4): abrupt drop to near background levels after 7 days of treatment
reversal of acute rejection ([5]; therapy post-transplantation): effective in reversing acute rejection as determined by both functional and histological criteria
graft vascular disease ([6]; day 50): had no graft vascular disease
antibodies directed against BN grafts in sera [6]: contained no antibodies directed against the BN grafts
toxicity in dogs (allogeneic kidney graft; dog, in vivo): limited, however, by toxicity due to the canine's N-acetylation enzyme deficiency
survival (allogeneic kidney graft; leflunomide 8 mg/kg daily): 27 ± 1 days
survival (allogeneic kidney graft; leflunomide 16 mg/kg daily): 21 ± 2 days
time to rejection after withdrawal of leflunomide (allogeneic kidney graft; withdrawn from two dogs after 100 days, combination-treated group): ≤ 14 days
